Measurements from patent publication US11987795B2, “Methods of modulating SLC7A11 pre-mRNA transcripts for diseases and conditions associated with expression of SLC7A11” (The Broad Institute, Inc., priority 2020, dated 2024).
Read-outs that look alike come from different tables or passages of the source.

How the values were obtained:
[1] = humans, long term administration; cited from earlier work
[2] = tested on: mdx mice; test: Wire hang test in mdx mice; format: in vivo; details: dantrolene 10 mg/kg/day with oligo AON23 10 mg/kg/week versus AON23 10 mg/kg/week alone, p=0.022
[3] = target: T1, cystine/glutamate antiporter SLC7A11 (xCT) (Homo sapiens, UniProt Q9UPY5); test: Glutamate secretion with sulfasalazine inhibition of the transporter; format: cell-based; details: K562 cells; FIG. S7A-E
T1 construct: endogenous in cells; host or cells: K562 (probable)
T1 sequence (Q9UPY5 1-501): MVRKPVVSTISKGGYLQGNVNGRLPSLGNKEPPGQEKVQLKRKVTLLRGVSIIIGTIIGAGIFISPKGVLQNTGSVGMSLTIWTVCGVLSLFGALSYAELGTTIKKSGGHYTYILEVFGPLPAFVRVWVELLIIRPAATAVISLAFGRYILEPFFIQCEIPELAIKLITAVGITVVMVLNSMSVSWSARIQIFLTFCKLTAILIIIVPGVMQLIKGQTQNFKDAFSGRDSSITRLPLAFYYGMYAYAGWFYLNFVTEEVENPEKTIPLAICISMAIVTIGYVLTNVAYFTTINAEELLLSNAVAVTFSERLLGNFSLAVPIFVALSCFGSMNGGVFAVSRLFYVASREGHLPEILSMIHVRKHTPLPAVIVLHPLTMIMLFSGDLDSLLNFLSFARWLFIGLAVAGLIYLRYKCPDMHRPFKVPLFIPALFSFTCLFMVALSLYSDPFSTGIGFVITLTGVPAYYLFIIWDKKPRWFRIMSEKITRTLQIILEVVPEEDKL
T1 sequence (P08195 1-529 partner): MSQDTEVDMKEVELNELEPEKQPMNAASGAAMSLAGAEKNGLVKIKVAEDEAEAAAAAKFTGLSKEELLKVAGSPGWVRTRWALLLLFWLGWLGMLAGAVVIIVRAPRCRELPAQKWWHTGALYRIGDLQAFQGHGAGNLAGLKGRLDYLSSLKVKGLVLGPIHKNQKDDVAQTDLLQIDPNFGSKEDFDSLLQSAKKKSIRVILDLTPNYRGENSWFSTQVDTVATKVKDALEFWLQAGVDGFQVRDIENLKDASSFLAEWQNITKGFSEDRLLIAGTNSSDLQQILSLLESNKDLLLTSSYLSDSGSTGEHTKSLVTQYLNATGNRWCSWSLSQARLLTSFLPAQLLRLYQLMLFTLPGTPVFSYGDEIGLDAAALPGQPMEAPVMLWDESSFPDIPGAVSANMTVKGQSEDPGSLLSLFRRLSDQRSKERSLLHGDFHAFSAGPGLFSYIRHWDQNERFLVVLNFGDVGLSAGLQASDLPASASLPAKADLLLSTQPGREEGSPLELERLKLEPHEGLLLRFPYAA
Procedure: Glutamate levels were determined using a commercially available AMPLEX kit (Life Technologies). LUC7L2WT, LUC7L2Rescue (LUC7L2KO cells were a LUC7L2 cDNA was stably expressed), LUC7L2KO and ASO treated K562 or HAP1 cells were grown for 24 h in fresh culture media and counted. Cells were then washed with PBS, the media was replaced and the cells were incubated for another 3 h. Medias were then collected and centrifuged at 2,000 g for 3 min, and glutamate concentrations were determined from the supernatant.

[4] = tested on: K562 cells; test: Maximal respiration with sulfasalazine inhibition of the transporter; format: cell-based, human; details: FIG. S7A-E
Procedure: 1.25×10^5 K562 cells were plated on a Seahorse plate in Seahorse XF DMEM media (Agilent) containing 25 mM glucose and 4 mM glutamine (ThermoFisher Scientific). Oxygen consumption and extracellular acidification rates were simultaneously recorded by a Seahorse XFe96 Analyzer (Agilent) using the mito stress test protocol, in which cells were sequentially perturbed by […] oligomycin, 1 μM CCCP and […] antimycin (Sigma). Data were analyzed using the Seahorse Wave Desktop Software (Agilent). Data were not corrected for carbonic acid derived from respiratory CO2. For seahorse in HeLa and HAP1 cells, 5×104 and 1×10^5 cells were plated in a 96-well seahorse plate the day before the experiment (respectively). Cells were trypsinized after the experiment and recounted and the data was normalized to cell number.

[5] = target: T2, PFKM (Homo sapiens, UniProt P08237); details: PFKM / PFK inhibition, cited from earlier work
T2 sequence (P08237 2-780 limits assumed): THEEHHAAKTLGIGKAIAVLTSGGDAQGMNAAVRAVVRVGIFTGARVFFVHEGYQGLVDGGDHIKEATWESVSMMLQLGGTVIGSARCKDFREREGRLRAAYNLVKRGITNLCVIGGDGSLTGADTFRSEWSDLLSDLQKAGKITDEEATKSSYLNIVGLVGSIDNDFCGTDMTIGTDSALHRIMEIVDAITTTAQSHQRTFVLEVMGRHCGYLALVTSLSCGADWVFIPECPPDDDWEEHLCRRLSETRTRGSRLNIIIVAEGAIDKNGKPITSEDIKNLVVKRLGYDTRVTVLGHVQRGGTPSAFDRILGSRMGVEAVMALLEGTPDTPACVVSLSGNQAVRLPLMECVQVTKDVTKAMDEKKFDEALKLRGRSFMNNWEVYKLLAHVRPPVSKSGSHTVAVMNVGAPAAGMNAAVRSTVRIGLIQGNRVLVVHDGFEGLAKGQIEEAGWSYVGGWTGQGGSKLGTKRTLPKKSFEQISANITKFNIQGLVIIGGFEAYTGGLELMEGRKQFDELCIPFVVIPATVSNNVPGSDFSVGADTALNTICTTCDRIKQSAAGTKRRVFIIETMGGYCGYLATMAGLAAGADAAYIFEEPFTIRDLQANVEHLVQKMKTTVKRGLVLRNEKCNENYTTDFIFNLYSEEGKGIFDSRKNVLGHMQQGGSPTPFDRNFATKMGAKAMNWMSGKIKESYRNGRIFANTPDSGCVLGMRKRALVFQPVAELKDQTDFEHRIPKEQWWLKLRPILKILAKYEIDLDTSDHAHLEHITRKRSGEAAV

O=C1CN(/N=C/c2ccc(-c3ccc([N+](=O)[O-])cc3)o2)C(O)=N1 [Dantrolene]
dose shown to be safe [1]: up to 8 mg/kg/day
functional benefit in wire hang test [2]: functional benefit

O=C(O)c1cc(/N=N/c2ccc(S(=O)(=O)Nc3ccccn3)cc2)ccc1O [sulfasalazine (SAS), sulfasalazine]
glutamate secretion [3]: prevented glutamate secretion
maximal respiration [4]: promoted maximal respiration

tryptolinamide [tryptonilamide]
shift of energy metabolism from glycolysis to OXPHOS [5]: glycolysis to OXPHOS shift
shift of energy metabolism from glycolysis to OXPHOS ([5]; listed as tryptolinamide): strong effect
